From PubChem BioAssay (NCI)
Several values for one entry are separate records, joined by “and”; a condition that tells them apart may be missing. Identical values can stand only once.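 Interpolation was linear, between the two tested concentrations surrounding the appropriate level; five concentrations were tested over 48 hours in 96-well plates. Abbreviation: GI50, concentration required for 50% inhibition of growth. TGI is the concentration that stops growth completely.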

Assays:
Experiment in all cases: growth of human tumour cells (NCI), 48 h
CAKI-1 renal = test system: CAKI-1 renal
EKVX NSCLC = test system: EKVX NSCLC
HCT-15 colon = test system: HCT-15 colon
HS 578T breast = test system: HS 578T breast
MCF7 breast = test system: MCF7 breast
OVCAR-8 ovarian = test system: OVCAR-8 ovarian
RPMI-8226 leukemia = test system: RPMI-8226 leukemia
SF-295 CNS = test system: SF-295 CNS
SK-MEL-5 melanoma = test system: SK-MEL-5 melanoma
UACC-62 melanoma = test system: UACC-62 melanoma

Structure (SMILES) | GI50 (CAKI-1 renal) | TGI (CAKI-1 renal) | GI50 (EKVX NSCLC) [µM] | TGI (EKVX NSCLC) | GI50 (HCT-15 colon) | TGI (HCT-15 colon) | GI50 (HS 578T breast) | TGI (HS 578T breast) | GI50 (MCF7 breast) | TGI (MCF7 breast) | GI50 (OVCAR-8 ovarian) | TGI (OVCAR-8 ovarian) | GI50 (RPMI-8226 leukemia) | TGI (RPMI-8226 leukemia) | GI50 (SF-295 CNS) | TGI (SF-295 CNS) | GI50 (SK-MEL-5 melanoma) | TGI (SK-MEL-5 melanoma) | GI50 (UACC-62 melanoma) | TGI (UACC-62 melanoma)
CCCCCCCCCCCCNC(=O)[C@H]1CSC(c2ccsc2)N1 (stereo partly specified) | 0.898 µM | 1.6 µM | 0.991 | 1.85 µM | 0.883 µM | 1.69 µM | 1.17 µM | 2.45 µM | 0.879 µM | 1.71 µM | 1.11 µM | 2.26 µM | 1.72 µM | 5.69 µM | 0.926 µM | 1.68 µM | 1.36 µM | 5.22 µM | 0.929 µM | 1.82 µM
Cc1cc(Nc2cc(N3CCN(C)CC3)nc(C#Cc3ccccc3)n2)n[nH]1 | 0.945 µM | 8.71 µM | 11 | 23.4 µM | 2.23 µM | 15.5 µM | 1.74 µM | 6.22 µM | 2.31 µM | 13.1 µM | 6.5 µM | 22.3 µM | 12.6 µM | 59.3 µM | 3.39 µM | 16.8 µM | 4.32 µM | 16.5 µM | 2.45 µM | 15.1 µM
Oc1cccc(-c2nc(N3CCOCC3)c3oc4ncccc4c3n2)c1 | 0.318 µM and 0.342 µM | 2.24 µM and 7.38 µM | 0.213 | 0.82 µM | 0.125 µM and 0.112 µM | > 100 µM | 0.0576 µM and 0.0526 µM | 2.94 µM and 0.409 µM | 0.27 µM and 0.18 µM | > 100 µM and 11.9 µM | 0.238 µM and 0.193 µM | 6.75 µM | 0.237 µM and 0.298 µM | > 38.3 µM | 1.21 µM and 1.62 µM | 4.08 µM and 4.6 µM | 0.263 µM and 0.346 µM | 1.2 µM and 2.44 µM | 1.05 µM and 0.471 µM | 3.03 µM and 1.64 µM
O=C(O)C(Cc1c[nH]c2ccccc12)N1C(=O)c2ccccc2C1=O (stereo unspecified) | – | > 100 µM | – | > 100 µM | – | > 100 µM | – | > 100 µM | – | > 100 µM | – | > 100 µM | – | > 100 µM | – | > 100 µM | – | > 100 µM | – | > 100 µM
COc1ccc(C2NC(=S)NC3=C2COc2ccc(F)cc23)cc1OC (stereo unspecified) | 15.8 µM | 65 µM | 29.8 | > 100 µM | 18.6 µM | 87 µM | 7.75 µM | 38.1 µM | 31.2 µM | > 100 µM | 19.4 µM | 60.9 µM | 13.5 µM | > 100 µM | 20.1 µM | 70.3 µM | 13.5 µM | 30.7 µM | 14.8 µM | 41.8 µM
O=C1c2c(O)ccc(O)c2C(=O)c2c(NCCNCCO)ccc(NCCNCCO)c21 | – | 1.07 µM and 0.18 µM | 0.564 | 3.68 µM and 4.55 µM and 1.28 µM | – | 2.55 µM and 24 µM and 4.15 µM | – | 0.296 µM and 1.88 µM and 1.03 µM | < 0.01 µM and < 0.005 µM and 0.00426 µM | 0.64 µM and 0.663 µM and 1.23 µM | – | 0.388 µM and 0.414 µM and 0.665 µM | – | 1.15 µM and 6.39 µM and 3.55 µM | – | 0.321 µM and 0.878 µM and 0.526 µM | – | 0.689 µM and 0.329 µM and 0.657 µM | – | 0.218 µM and 0.756 µM and 0.595 µM
C=C[C@@]1(C)CC(=O)[C@]2(O)[C@@]3(C)[C@@H](O)CCC(C)(C)[C@@H]3[C@H](O)[C@@H](OC(C)=O)[C@@]2(C)O1 | – | > 100 µM | – | > 100 µM | – | > 100 µM | – | > 100 µM | – | > 100 µM | – | > 100 µM | – | 95.4 µM | – | > 100 µM | – | > 100 µM | – | > 100 µM
Cc1cc(C)c2nccc(NCCCN(C)C)c2c1[N+](=O)[O-] | – | > 100 µM | – | > 100 µM | – | 30.7 µM | – | > 100 µM | – | > 100 µM | – | > 100 µM | – | > 100 µM | – | > 100 µM | – | 26.6 µM | – | > 100 µM
COc1ccc(-c2nn3ncccc3c2-c2ccnc(Nc3cccc(C(F)(F)F)c3)n2)cc1 | 7 µM | > 25 µM | 6.69 | > 25 µM | 7.97 µM | > 25 µM | 8.29 µM | > 25 µM | 7.42 µM | > 25 µM | 8.74 µM | > 25 µM | 7.67 µM | > 25 µM | 7.6 µM | > 25 µM | 5.27 µM | 14.5 µM | 7.86 µM | > 25 µM
COc1ccc(-c2conc2-c2ccccc2)cc1 | 0.246 µM | > 100 µM | 2.64 | > 100 µM | 0.099 µM | > 100 µM | 0.267 µM | – | 0.0865 µM | > 100 µM | 0.604 µM | > 100 µM | 0.453 µM | 41.9 µM | 0.317 µM | > 100 µM | 0.441 µM | 4.47 µM | 0.689 µM | > 100 µM
COC(=O)C1=C(C(=O)OC)C(C(=O)OC)C(C(=O)OC)C(C(=O)OC)(C(=O)OC)C(C(=O)OC)=C1C(=O)OC (stereo unspecified) | – | 36.7 µM | – | 35.4 µM | – | 21.2 µM | – | 75.3 µM | – | 33.6 µM | – | 25.2 µM | – | 10.5 µM | – | 39.9 µM | – | 31.6 µM | – | 31 µM
COC12C=C/C(=C(/C(=O)OCc3csc(SC)n3)C(=O)CCCCCCCCC3(OC)C=C/C(=C(/C(=O)OCc4cnc(SC)s4)C(=O)CCCCCCCC1)O3)O2 (stereo unspecified) | 70 µM | > 100 µM | 6.38 | > 100 µM | 17 µM | > 100 µM | 4.52 µM | 57.6 µM | 1.13 µM | > 100 µM | 2.08 µM | 32.4 µM | 0.946 µM | > 100 µM | 3.33 µM | 25.7 µM | 1.7 µM | 3.56 µM | 3.51 µM | 35.2 µM
CCOC(=O)C(=Cc1c(-c2ccccc2)[nH]c2ccccc12)C(=O)OCC | 8.26 µM | > 49.8 µM | 10.8 | 54.1 µM | 4.07 µM | 38.4 µM | 3.53 µM | 28.8 µM | 4.49 µM | 18 µM | 4.08 µM | 17.9 µM | 0.219 µM | 3.28 µM | 7.27 µM | 63.8 µM | 3.81 µM | 14.2 µM | 4.64 µM | 21.7 µM
COc1ccc2c(c1)c(-c1cc(-c3cn(C)c4ccc(OC)cc34)[nH]n1)cn2C | > 100 µM | > 100 µM | > 100 | > 100 µM | > 100 µM | > 100 µM | > 100 µM | > 100 µM | > 100 µM | > 100 µM | > 100 µM | > 100 µM | > 100 µM | > 100 µM | > 100 µM | > 100 µM | > 100 µM | > 100 µM | > 100 µM | > 100 µM
